Results: patent US20160199351A1, “COMPOSITIONS AND METHODS FOR INHIBITING FUNGAL INFECTIONS” (priority 2015, published 2016)
Like-named read-outs stand apart in the source and are kept apart here.

Experiments:
C. parapsilosis = assay: MIC against Candida species (Table 4)
Histoplasma capsulatum [1] = type: cell-based; settings: 24-hour treatment
Scedosporium apiospermum = assay: MIC, CLSI M38-A2 broth dilution (Table 1); type: cell-based
C. guilliermondii = assay: MIC against Candida species (Table 4); settings: Meyerozyma guilliermondii
Pneumocystis murina = assay: In vitro ATP content of Pneumocystis (luciferin-luciferase assay); settings: for IC50: Pneumocystis murina, read-out: IC50 (reduction in ATP)
Aspergillus fumigatus = Aspergillus fumigatus mycelia growth dose-response (MIC by linear regression); type: cell-based; settings: for MIC: Aspergillus fumigatus, FIG. 2A dose-response, linear regression
Fusarium oxysporum = assay: MIC, CLSI M38-A2 broth dilution (Table 1); type: cell-based
Coccidioides sp. = assay: microbe, parasite or virus in culture; type: cell-based
Blastomyces dermatitidis [2] = assay: MIC, macrodilution method (Table 1); type: cell-based; settings: 96 hours
Blastomyces dermatitidis [3] = assay: MIC (Table 6); type: cell-based; settings: for MIC: read-out: MIC 100%
Pneumocystis carinii = assay: In vitro ATP content of Pneumocystis (luciferin-luciferase assay); settings: for IC50: Pneumocystis carinii, read-out: IC50 (reduction in ATP)
Apophysomyces = assay: MIC (Table 5)
Histoplasma capsulatum [4] = assay: organism not typed; type: cell-based
Fusarium solani = assay: MIC, CLSI M38-A2 broth dilution (Table 1); type: cell-based; settings: isolate FS1, 48 hours

NCC(=O)Nc1ccc(-n2nc(C(F)(F)F)cc2-c2ccc3c(ccc4ccccc43)c2)cc1 [AR-12, 2-amino-N-(4-(5-(phenanthren-2-yl)-3-(trifluoromethyl)-1H-pyrazol-1-yl)phenyl)acetamide]
4 µg/mL: MIC (C. parapsilosis; 24 h, read-out: MIC 100%, isolate CP-2, 24 hrs) | MIC (C. parapsilosis; 24 h, read-out: MIC 100%, isolate CP-3, 24 hrs) | MIC (C. parapsilosis; 24 h, read-out: MIC 100%, isolate CP-4, 24 hrs) | MIC (C. parapsilosis; 24 h, read-out: MIC 100%, isolate CP-6, 24 hrs) | MIC50 (C. parapsilosis; 48 h, isolate CP-1, 48 hrs) | MIC50 (C. parapsilosis; 48 h, isolate CP-2, 48 hrs) | MIC50 (C. parapsilosis; 48 h, isolate CP-3, 48 hrs) | MIC50 (C. parapsilosis; 48 h, isolate CP-4, 48 hrs) | MIC50 (C. parapsilosis; 48 h, isolate CP-5, 48 hrs) | MIC50 (C. parapsilosis; 48 h, isolate CP-6, 48 hrs) | MIC (C. parapsilosis; 48 h, read-out: MIC 100%, isolate CP-1, 48 hrs) | MIC (C. parapsilosis; 48 h, read-out: MIC 100%, isolate CP-2, 48 hrs) | MIC (C. parapsilosis; 48 h, read-out: MIC 100%, isolate CP-3, 48 hrs) | MIC (C. parapsilosis; 48 h, read-out: MIC 100%, isolate CP-4, 48 hrs) | MIC (C. parapsilosis; 48 h, read-out: MIC 100%, isolate CP-5, 48 hrs) | MIC (C. parapsilosis; 48 h, read-out: MIC 100%, isolate CP-6, 48 hrs) | MIC (C. parapsilosis; 48 h, read-out: MIC 100%, isolate CP-7, 48 hrs) | MIC (C. parapsilosis; 48 h, read-out: MIC 100%, isolate QC, 48 hrs) | MIC50 (C. guilliermondii; 24 h, isolate Cgu-5, 24 hrs) | MIC50 (C. guilliermondii; 24 h, isolate Cgu-6, 24 hrs) | MIC (C. guilliermondii; 24 h, read-out: MIC 100%, isolate Cgu-5, 24 hrs) | MIC (C. guilliermondii; 24 h, read-out: MIC 100%, isolate Cgu-6, 24 hrs) | MIC50 (C. guilliermondii; 48 h, isolate Cgu-1, 48 hrs) | MIC50 (C. guilliermondii; 48 h, isolate Cgu-5, 48 hrs) | MIC50 (C. guilliermondii; 48 h, isolate Cgu-6, 48 hrs) | MIC50 (C. guilliermondii; 48 h, isolate Cgu-7, 48 hrs) | MIC (C. guilliermondii; 48 h, read-out: MIC 100%, isolate Cgu-1, 48 hrs) | MIC (C. guilliermondii; 48 h, read-out: MIC 100%, isolate Cgu-2, 48 hrs) | MIC (C. guilliermondii; 48 h, read-out: MIC 100%, isolate Cgu-3, 48 hrs) | MIC (C. guilliermondii; 48 h, read-out: MIC 100%, isolate Cgu-5, 48 hrs) | MIC (C. guilliermondii; 48 h, read-out: MIC 100%, isolate Cgu-6, 48 hrs) | MIC (C. guilliermondii; 48 h, read-out: MIC 100%, isolate Cgu-7, 48 hrs) | MIC (Coccidioides sp.; Coccidioides, read-out: MIC 100%, isolate COCCI-1, 72/192 hrs) | MIC (Coccidioides sp.; Coccidioides, read-out: MIC 100%, isolate COCCI-3, 72/192 hrs) | MIC50 (Apophysomyces) | MIC (Apophysomyces; 24 h, read-out: MIC 100%, isolate AE-1, 24 hrs) | MIC (Apophysomyces; 24 h, read-out: MIC 100%, isolate AE-2, 24 hrs) | MIC 50% (Apophysomyces; isolate AE-2, 48/72 hrs) | MIC (Apophysomyces; read-out: MIC 100%, isolate AE-1, 48/72 hrs) | MIC (Apophysomyces; read-out: MIC 100%, isolate AE-2, 48/72 hrs)
1.76%: Pm % Reduction in ATP/Vehicle Control (Pneumocystis carinii; Table 2, 1 μg/ml, 48 hours)
15.48%: Pm % Reduction in ATP/Vehicle Control (Pneumocystis murina; Table 3, 1 μg/ml, 72 hours)
0.5 µg/mL: MIC (Blastomyces dermatitidis [3]; isolate BD1, 72/192 hrs)
8.6 µM: MIC (Aspergillus fumigatus; read-out: MIC, concentration resulting in 90% inhibition of mycelia growth)
83.6%: Pm % Reduction in ATP/Vehicle Control (Pneumocystis murina; Table 3, 100 μg/ml, 24 hours)
85.38%: Pm % Reduction in ATP/Vehicle Control (Pneumocystis murina; Table 3, 10 μg/ml, 48 hours)
1 gg/m1: MIC 50% (Scedosporium apiospermum; isolate SA2, 72 hours) | MIC 50% (Blastomyces dermatitidis [2]; isolate BD2, macrodilution) | MIC 50% (Blastomyces dermatitidis [2]; isolate BD3, macrodilution) | MIC 100% (Blastomyces dermatitidis [2]; isolate BD3, macrodilution)
16.68%: Pm % Reduction in ATP/Vehicle Control (Pneumocystis carinii; Table 2, 10 μg/ml, 48 hours)
99.04%: Pm % Reduction in ATP/Vehicle Control (Pneumocystis carinii; Table 2, 100 μg/ml, 72 hours)
8 µg/mL: MIC (Coccidioides sp.; Coccidioides, read-out: MIC 100%, isolate COCCI-2, 72/192 hrs)
loss of yeast viability: viability staining of yeasts (Histoplasma capsulatum [1]; ethidium bromide / fluorescein staining)
15.9 µM: MIC (Histoplasma capsulatum [4]; read-out: MIC, concentration resulting in 90% inhibition of yeast growth)
1 µg/mL: MIC50 (Blastomyces dermatitidis [3]; isolate BD3, 72/192 hrs)
0.25 µg/mL: MIC50 (Blastomyces dermatitidis [3]; isolate BD1, 72/192 hrs)
54.02%: Pm % Reduction in ATP/Vehicle Control (Pneumocystis murina; Table 3, 10 μg/ml, 24 hours)
18.3 µg/mL: IC50 (Pneumocystis carinii; 48 h)
0.49%: Pm % Reduction in ATP/Vehicle Control (Pneumocystis carinii; Table 2, 1 μg/ml, 72 hours)
5.4 µM: MIC (Histoplasma capsulatum [4]; read-out: MIC, concentration resulting in 50% inhibition of yeast growth)
98.09%: Pm % Reduction in ATP/Vehicle Control (Pneumocystis murina; Table 3, 100 μg/ml, 72 hours)
3.51%: Pm % Reduction in ATP/Vehicle Control (Pneumocystis murina; Table 3, 1 μg/ml, 24 hours)
1.78 µg/mL: IC50 (Pneumocystis murina; 72 h)
97.76%: Pm % Reduction in ATP/Vehicle Control (Pneumocystis murina; Table 3, 100 μg/ml, 48 hours)
4.82 µg/mL: IC50 (Pneumocystis carinii; 72 h)
41.3 µg/mL: IC50 (Pneumocystis carinii; 24 h)
3.1 µM: MIC (Aspergillus fumigatus; read-out: MIC, concentration resulting in 50% inhibition of mycelia growth)
94.23%: Pm % Reduction in ATP/Vehicle Control (Pneumocystis murina; Table 3, 10 μg/ml, 72 hours)
9.69 µg/mL: IC50 (Pneumocystis murina; 24 h)
59.81%: Pm % Reduction in ATP/Vehicle Control (Pneumocystis carinii; Table 2, 10 μg/ml, 72 hours)
4 gg/m1: MIC 50% (Fusarium oxysporum; isolate FO1, 48 hours) | MIC 100% (Fusarium oxysporum; isolate FO1, 48 hours) | MIC 50% (Fusarium oxysporum; isolate FO2, 48 hours) | MIC 100% (Fusarium oxysporum; isolate FO2, 48 hours) | MIC 100% (Blastomyces dermatitidis [2]; isolate BD1, macrodilution) | MIC 50% (Fusarium solani) | MIC 100% (Fusarium solani)
97.31%: Pm % Reduction in ATP/Vehicle Control (Pneumocystis carinii; Table 2, 100 μg/ml, 24 hours)
about 1000 fold: reduction of fungal viability (Histoplasma capsulatum [1]; then growth in absence of drug)
2.77 µg/mL: IC50 (Pneumocystis murina; 48 h)
8 to 40 µM: concentration that effectively prevents growth (Aspergillus fumigatus; stated for all three fungi) | concentration that effectively prevents growth (Histoplasma capsulatum [4]; stated for all three fungi)
2 µg/mL: MIC50 (C. parapsilosis; 24 h, isolate CP-1, 24 hrs) | MIC50 (C. parapsilosis; 24 h, isolate CP-2, 24 hrs) | MIC50 (C. parapsilosis; 24 h, isolate CP-3, 24 hrs) | MIC50 (C. parapsilosis; 24 h, isolate CP-4, 24 hrs) | MIC50 (C. parapsilosis; 24 h, isolate CP-5, 24 hrs) | MIC50 (C. parapsilosis; 24 h, isolate CP-6, 24 hrs) | MIC50 (C. parapsilosis; 24 h, isolate CP-7, 24 hrs) | MIC50 (C. parapsilosis; 24 h, isolate QC) | MIC (C. parapsilosis; 24 h, read-out: MIC 100%, isolate CP-1, 24 hrs) | MIC (C. parapsilosis; 24 h, read-out: MIC 100%, isolate CP-5, 24 hrs) | MIC (C. parapsilosis; 24 h, read-out: MIC 100%, isolate CP-7, 24 hrs) | MIC (C. parapsilosis; 24 h, read-out: MIC 100%, isolate QC, 24 hrs) | MIC50 (C. parapsilosis; 48 h, isolate CP-7, 48 hrs) | MIC50 (C. parapsilosis; 48 h, isolate QC) | MIC50 (C. guilliermondii; 24 h, isolate Cgu-1, 24 hrs) | MIC50 (C. guilliermondii; 24 h, isolate Cgu-2, 24 hrs) | MIC50 (C. guilliermondii; 24 h, isolate Cgu-3, 24 hrs) | MIC50 (C. guilliermondii; 24 h, isolate Cgu-4, 24 hrs) | MIC50 (C. guilliermondii; 24 h, isolate Cgu-7, 24 hrs) | MIC (C. guilliermondii; 24 h, read-out: MIC 100%, isolate Cgu-1, 24 hrs) | MIC (C. guilliermondii; 24 h, read-out: MIC 100%, isolate Cgu-2, 24 hrs) | MIC (C. guilliermondii; 24 h, read-out: MIC 100%, isolate Cgu-3, 24 hrs) | MIC (C. guilliermondii; 24 h, read-out: MIC 100%, isolate Cgu-4, 24 hrs) | MIC (C. guilliermondii; 24 h, read-out: MIC 100%, isolate Cgu-7, 24 hrs) | MIC50 (C. guilliermondii; 48 h, isolate Cgu-2, 48 hrs) | MIC50 (C. guilliermondii; 48 h, isolate Cgu-3, 48 hrs) | MIC50 (C. guilliermondii; 48 h, isolate Cgu-4, 48 hrs) | MIC (C. guilliermondii; 48 h, read-out: MIC 100%, isolate Cgu-4, 48 hrs) | MIC50 (Coccidioides sp.; Coccidioides) | MIC 50% (Coccidioides sp.; isolate COCCI-1, 72/192 hrs) | MIC 50% (Coccidioides sp.; isolate COCCI-3, 72/192 hrs) | MIC50 (Blastomyces dermatitidis [3]; isolate BD2, 72/192 hrs) | MIC (Blastomyces dermatitidis [3]; isolate BD2, 72/192 hrs) | MIC (Blastomyces dermatitidis [3]; isolate BD3, 72/192 hrs) | MIC50 (Apophysomyces; 24 h) | MIC 50% (Apophysomyces; isolate AE-2, 24 hrs)
2 gg/m1: MIC 50% (Scedosporium apiospermum; isolate SA1, 72 hours) | MIC 100% (Scedosporium apiospermum; isolate SA1, 72 hours) | MIC 100% (Scedosporium apiospermum; isolate SA2, 72 hours) | MIC 50% (Blastomyces dermatitidis [2]; isolate BD1, macrodilution) | MIC 100% (Blastomyces dermatitidis [2]; isolate BD2, macrodilution)
97.2%: Pm % Reduction in ATP/Vehicle Control (Pneumocystis carinii; Table 2, 100 μg/ml, 48 hours)
5.76%: Pm % Reduction in ATP/Vehicle Control (Pneumocystis murina; Table 3, 1 μg/ml, 48 hours)
0%: Pm % Reduction in ATP/Vehicle Control (Pneumocystis carinii; Table 2, 1 μg/ml, 24 hours) | Pm % Reduction in ATP/Vehicle Control (Pneumocystis carinii; Table 2, 10 μg/ml, 24 hours)
